Test: Pharmacokinetics in mice after oral administration, plasma and brain by LC/MS/MS
Conditions: 30 mg/kg CuXTSM API oral; for Brain AUC0-24h / Brain AUC0-inf / Brain Cmax / Brain Tmax / Brain t½ (number of time points): mouse brain; for Brain t½ (number of time points) / Plasma t½ (number of time points): bracket = number of time points; for Plasma Ke / Plasma MRT / Plasma AUC0-24h / Plasma AUC0-inf / Plasma Cmax / Plasma Tmax / Plasma t½ (number of time points): mouse plasma; for Plasma AUC0-24h / Plasma AUC0-inf / Plasma Cmax / Plasma Tmax: CuATSM in SSV, NCDs in water
Procedure: CuATSM was suspended in “Standard Suspension Vehicle” (SSV), consisting of 0.9% (w/v) NaCl, 0.5% (w/v) sodium carboxymethylcellulose, 0.5% (v/v) benzyl alcohol, and 0.4% (v/v) Tween 80 in deionized water. All other test compounds were suspended in sterile water. Samples were prepared by adding one of the compounds to the liquid vehicle (water or SSV) in a vial and then vortexing the mixture for 3 min with a stir bar inside. If the powdered sample was not completely wetted or not completely suspended, the sample was vortexed for another minute. If wetting was still incomplete, the vial was sonicated until a fully wetted suspension was obtained. Between doses, the sample was stirred on medium speed and then vortexed for an additional 20 s immediately before the next dose was removed from the vial. All dosing was completed from a single preparation of the suspension within 60 min of adding the compound to water or SSV.
Mice were deprived of pelleted food overnight, during which time 10% dextrose, as Dextroput, was provided in tap water, after which the test items were administrated orally by gavage in water or SSV. […] The blood samples were kept on ice after sampling and centrifuged at +4° C., 1800×g for 5 min to prepare plasma. Plasma samples were extracted and transferred into pre-labelled Eppendorf test tubes (50 μl exact in one vial, and the remaining in a second vial) and frozen at −20° C. The samples were transported on dry ice to the analysis site. Following blood sampling, mice were euthanized by cervical dislocation, and then brains were collected through opened skulls. The brains were weighed and placed in test tubes and placed on water ice. Phosphate-buffered saline (PBS, pH 7.4), 4 ml per 1 g of brain tissue, was added to the test tube and brains were homogenized by using Ultra-Turrax T25 homogenizer/S25N-10G (Setting 2, 9500 rpm, approximately 10 s). The homogenate was frozen at −20° C. immediately after homogenization. The samples were transported on dry ice to the analysis site.
Dosed mice were studied in triplicate for each of the seven time points, totaling 21 mice dosed for each studied compound. Plasma samples and brain homogenates from four untreated animals were also obtained. The plasma samples were thawed at room temperature (RT), mixed with 2-fold volume of acetonitrile, shaken and centrifuged for 10 min at 13 000×g (Heraeus Pico 17 centrifuge), after which supernatants were transferred into glass vials. The brain homogenate samples were mixed with 2-fold volume of acetonitrile:methanol, shaken, ultrasonicated for 20 min, and centrifuged for 10 min at 13 000×g (Heraeus Pico 17 centrifuge), after which supernatants were transferred into glass vials. […] Quality control (QC) samples were prepared for concentrations 10, 100 and 1000 ng/ml in plasma or brain homogenates.
Elution was with gradient of 0.5% formic acid/acetonitrile (99:1) increased step-wise to (5:95).
The pharmacokinetic parameters for study compounds in plasma and brain were calculated using standard non-compartmental methods. The elimination phase half-life (t½) was calculated by least-squares regression analysis of the terminal linear part of the log concentration-time curve. […] The maximum concentration (Cmax) and the time to Cmax (Tmax) were derived directly from the concentration data. Mean Residence Time, MRT, and elimination rate constant, Ke, were also calculated from the concentration vs. time data of plasma samples.

SMILES	Brain AUC0-24h [ng·min/g]	Brain AUC0-inf [ng·min/g]	Brain Cmax [ng/g]	Brain Tmax [min]	Brain t½ (number of time points)	Plasma Ke [min⁻¹]	Plasma MRT [min]	Plasma AUC0-24h [ng·min/mL]	Plasma AUC0-inf [ng·min/mL]	Plasma Cmax [ng/mL]	Plasma Tmax [min]	Plasma t½ (number of time points)	Brain:plasma-ratio (Cmax-based) (mouse)
CNC1=NN=C(C)C(C)=NN=C(NC)[S][Cu][S]1.O=C(O)CC(O)(CC(=O)O)C(=O)O [CuATSM:citric acid (1:1)]	15435	15563	77.0	60	218 (4) min	0.0034	315	8292	8366	14.5	60	204 (3) min	
CNC1=NN=CC(C)=NN=C(NC)[S][Cu][S]1.O=C1NS(=O)(=O)c2ccccc21.O=C1NS(=O)(=O)c2ccccc21 [CuPTSM:saccharin (1:2)]	62832	72025	189	30	487 (2) min	0.0016	474	60004	68278	91.5	60	439 (2) min	2.1
